Data taken from ChEMBL document CHEMBL3045592, “Studies of O,O-dimethyl α-(2,4-dichlorophenoxyacetoxy)ethylphosphonate (HW02) as a new herbicide. 1. Synthesis and herbicidal activity of HW02 and analogues as novel inhibitors of pyruvate dehydrogenase complex” (J Agric Food Chem, 2011).

Columns and labels:
[1] = biological target: Pyruvate dehydrogenase complex (Vigna radiata var. radiata); assay: Inhibition of PDHc in Vigna radiata var. radiata VC2778A shoot mitochondria assessed as decrease in rate of NADH formation using sodium pyruvate as substrate preincubated for 25 min before substrate addition measured after 1 min by spectrophotometric assay; assay type: protein-complex assay
Digitaria sanguinalis [2] = assay: Post-emergence herbicidal activity against Digitaria sanguinalis (hairy crabgrass) assessed as growth inhibition at 150 ai g/ha after 20 days by green house test; assay type: functional
Amaranthus spinosus [3] = assay: Post-emergence herbicidal activity against Amaranthus spinosus assessed as growth inhibition at 450 ai g/ha after 20 days by green house test; assay type: functional
Amaranthus spinosus [4] = assay: Pre-emergence herbicidal activity against Amaranthus spinosus assessed as growth inhibition at 450 ai g/ha after 20 days by green house test; assay type: functional
Chenopodium album [5] = assay: Post-emergence herbicidal activity against Chenopodium album assessed as growth inhibition at 150 ai g/ha after 20 days by green house test; assay type: functional
Amaranthus spinosus [6] = assay: Pre-emergence herbicidal activity against Amaranthus spinosus assessed as growth inhibition at 150 ai g/ha after 20 days by green house test; assay type: functional
Cucumis sativus [7] = assay: Herbicidal activity against Cucumis sativus Jin 4 (cucumber) assessed as inhibition of stem growth after 3 days; assay type: functional, organism-based; conditions: Jin 4, 72 h
Echinochloa crus-galli [8] = assay: Pre-emergence herbicidal activity against Echinochloa crus-galli (barnyard grass) assessed as growth inhibition at 1500 ai g/ha after 20 days by green house test; assay type: functional
[9] = Toxicity against Oryza sativa (rice) assessed as growth inhibition at 450 ai g/ha post-emergent application measured after 20 days by green house crop selectivity test; assay type: organism-based; conditions: in vivo, read-out: GI
Setaria viridis [10] = assay: Pre-emergence herbicidal activity against Setaria viridis (green foxtail) assessed as growth inhibition at 150 ai g/ha after 20 days by green house test; assay type: functional
Abutilon theophrasti [11] = assay: Pre-emergence herbicidal activity against Abutilon theophrasti (velvetleaf) assessed as growth inhibition at 150 ai g/ha after 20 days by green house test; assay type: functional
Digitaria sanguinalis [12] = assay: Pre-emergence herbicidal activity against Digitaria sanguinalis (hairy crabgrass) assessed as growth inhibition at 450 ai g/ha after 20 days by green house test; assay type: functional
Abutilon theophrasti [13] = assay: Post-emergence herbicidal activity against Abutilon theophrasti (velvetleaf) assessed as growth inhibition at 450 ai g/ha after 20 days by green house test; assay type: functional
Chenopodium album [14] = assay: Post-emergence herbicidal activity against Chenopodium album assessed as growth inhibition at 75 ai g/ha after 20 days by green house test; assay type: functional
Amaranthus retroflexus [15] = assay: Post-emergence herbicidal activity against Amaranthus retroflexus assessed as growth inhibition at 450 ai g/ha after 20 days by green house test; assay type: functional
Setaria viridis [16] = assay: Post-emergence herbicidal activity against Setaria viridis (green foxtail) assessed as growth inhibition at 75 ai g/ha after 20 days by green house test; assay type: functional
Chenopodium album [17] = assay: Pre-emergence herbicidal activity against Chenopodium album assessed as growth inhibition at 150 ai g/ha after 20 days by green house test; assay type: functional
Digitaria sanguinalis [18] = assay: Post-emergence herbicidal activity against Digitaria sanguinalis (hairy crabgrass) assessed as growth inhibition at 75 ai g/ha after 20 days by green house test; assay type: functional
Setaria viridis [19] = assay: Pre-emergence herbicidal activity against Setaria viridis (green foxtail) assessed as growth inhibition at 450 ai g/ha after 20 days by green house test; assay type: functional
Chenopodium album [20] = assay: Pre-emergence herbicidal activity against Chenopodium album assessed as growth inhibition at 450 ai g/ha after 20 days by green house test; assay type: functional
Cucumis sativus [21] = assay: Herbicidal activity against Cucumis sativus Jin 4 (cucumber) assessed as inhibition of root growth after 3 days; assay type: functional, organism-based; conditions: Jin 4, 72 h
Digitaria sanguinalis [22] = assay: Post-emergence herbicidal activity against Digitaria sanguinalis (hairy crabgrass) assessed as growth inhibition at 450 ai g/ha after 20 days by green house test; assay type: functional
Setaria viridis [23] = assay: Post-emergence herbicidal activity against Setaria viridis (green foxtail) assessed as growth inhibition at 450 ai g/ha after 20 days by green house test; assay type: functional
Digitaria sanguinalis [24] = assay: Post-emergence herbicidal activity against Digitaria sanguinalis (hairy crabgrass) assessed as growth inhibition at 1500 ai g/ha after 20 days by green house test; assay type: functional
Amaranthus spinosus [25] = assay: Post-emergence herbicidal activity against Amaranthus spinosus assessed as growth inhibition at 150 ai g/ha after 20 days by green house test; assay type: functional
Amaranthus retroflexus [26] = assay: Post-emergence herbicidal activity against Amaranthus retroflexus assessed as growth inhibition at 1500 ai g/ha after 20 days by green house test; assay type: functional
Brassica juncea = assay: Post-emergence herbicidal activity against Brassica juncea assessed as growth inhibition at 450 ai g/ha after 20 days by green house test; assay type: functional
Amaranthus spinosus [27] = assay: Pre-emergence herbicidal activity against Amaranthus spinosus assessed as growth inhibition at 75 ai g/ha after 20 days by green house test; assay type: functional
[28] = system: Brassica rapa subsp. oleifera; assay: Post-emergence herbicidal activity against Brassica rapa subsp. oleifera Si Yue Man assessed as growth inhibition at 1500 ai g/ha after 20 days by green house test; assay type: functional
Digitaria sanguinalis [29] = assay: Pre-emergence herbicidal activity against Digitaria sanguinalis (hairy crabgrass) assessed as growth inhibition at 1500 ai g/ha after 20 days by green house test; assay type: functional
Pisum sativum = assay: Post-emergence herbicidal activity against Pisum sativum Zhongwan-2 (pea) assessed as growth inhibition at 450 ai g/ha after 20 days by green house test; conditions: Lathyrus oleraceus
[30] = system: Brassica rapa subsp. oleifera; assay: Pre-emergence herbicidal activity against Brassica rapa subsp. oleifera Si Yue Man assessed as growth inhibition at 1500 ai g/ha after 20 days by green house test; assay type: functional
Chenopodium album [31] = assay: Pre-emergence herbicidal activity against Chenopodium album assessed as growth inhibition at 75 ai g/ha after 20 days by green house test; assay type: functional
Chenopodium album [32] = assay: Post-emergence herbicidal activity against Chenopodium album assessed as growth inhibition at 450 ai g/ha after 20 days by green house test; assay type: functional
Echinochloa crus-galli [33] = assay: Post-emergence herbicidal activity against Echinochloa crus-galli (barnyard grass) assessed as growth inhibition at 450 ai g/ha after 20 days by green house test; assay type: functional
Digitaria sanguinalis [34] = assay: Pre-emergence herbicidal activity against Digitaria sanguinalis (hairy crabgrass) assessed as growth inhibition at 150 ai g/ha after 20 days by green house test; assay type: functional
Digitaria sanguinalis [35] = assay: Pre-emergence herbicidal activity against Digitaria sanguinalis (hairy crabgrass) assessed as growth inhibition at 75 ai g/ha after 20 days by green house test; assay type: functional
Medicago sativa [36] = assay: Pre-emergence herbicidal activity against Medicago sativa (alfalfa) assessed as growth inhibition at 1500 ai g/ha after 20 days by green house test; assay type: functional
Abutilon theophrasti [37] = assay: Pre-emergence herbicidal activity against Abutilon theophrasti (velvetleaf) assessed as growth inhibition at 75 ai g/ha after 20 days by green house test; assay type: functional
Abutilon theophrasti [38] = assay: Pre-emergence herbicidal activity against Abutilon theophrasti (velvetleaf) assessed as growth inhibition at 450 ai g/ha after 20 days by green house test; assay type: functional
Abutilon theophrasti [39] = assay: Post-emergence herbicidal activity against Abutilon theophrasti (velvetleaf) assessed as growth inhibition at 75 ai g/ha after 20 days by green house test; assay type: functional
Amaranthus retroflexus [40] = assay: Pre-emergence herbicidal activity against Amaranthus retroflexus assessed as growth inhibition at 1500 ai g/ha after 20 days by green house test; assay type: functional
Medicago sativa [41] = assay: Post-emergence herbicidal activity against Medicago sativa (alfalfa) assessed as growth inhibition at 1500 ai g/ha after 20 days by green house test; assay type: functional
Setaria viridis [42] = assay: Post-emergence herbicidal activity against Setaria viridis (green foxtail) assessed as growth inhibition at 150 ai g/ha after 20 days by green house test; assay type: functional
Echinochloa crus-galli [43] = assay: Post-emergence herbicidal activity against Echinochloa crus-galli (barnyard grass) assessed as growth inhibition at 1500 ai g/ha after 20 days by green house test; assay type: functional
Abutilon theophrasti [44] = assay: Post-emergence herbicidal activity against Abutilon theophrasti (velvetleaf) assessed as growth inhibition at 150 ai g/ha after 20 days by green house test; assay type: functional
Setaria viridis [45] = assay: Pre-emergence herbicidal activity against Setaria viridis (green foxtail) assessed as growth inhibition at 75 ai g/ha after 20 days by green house test; assay type: functional
Amaranthus spinosus [46] = assay: Post-emergence herbicidal activity against Amaranthus spinosus assessed as growth inhibition at 75 ai g/ha after 20 days by green house test; assay type: functional

## COP(=O)(COC(=O)COc1ccc(Cl)cc1Cl)OC
[1]
  IC50: 19.7 µM
Digitaria sanguinalis [2]
  growth inhibition (GI): 0%
Amaranthus spinosus [3]
  growth inhibition (GI): 97.5%
Amaranthus spinosus [4]
  growth inhibition (GI): 52.5%
Chenopodium album [5]
  growth inhibition (GI): 99.5%
Amaranthus spinosus [6]
  growth inhibition (GI): 0%
Cucumis sativus [7]
  IC50: 7.79 µM
Echinochloa crus-galli [8]
  growth inhibition (GI): <=50%
[9]
  inhibition at 480 h: 0%
Setaria viridis [10]
  growth inhibition (GI): 0%
Abutilon theophrasti [11]
  growth inhibition (GI): 0%
Digitaria sanguinalis [12]
  growth inhibition (GI): 0%
Abutilon theophrasti [13]
  growth inhibition (GI): 100%
Chenopodium album [14]
  growth inhibition (GI): 82.5%
Amaranthus retroflexus [15]
  growth inhibition (GI): 97.5%
Setaria viridis [16]
  growth inhibition (GI): 0%
Chenopodium album [17]
  growth inhibition (GI): 0%
Digitaria sanguinalis [18]
  growth inhibition (GI): 0%
Setaria viridis [19]
  growth inhibition (GI): 5%
Chenopodium album [20]
  growth inhibition (GI): 52.5%
Cucumis sativus [21]
  IC50: 0.0577 µM
Digitaria sanguinalis [22]
  growth inhibition (GI): 0%
Setaria viridis [23]
  growth inhibition (GI): 0%
Digitaria sanguinalis [24]
  growth inhibition (GI): <=50%
Amaranthus spinosus [25]
  growth inhibition (GI): 92.5%
Amaranthus retroflexus [26]
  growth inhibition (GI): 90%
Brassica juncea
  growth inhibition (GI): 100%
Amaranthus spinosus [27]
  growth inhibition (GI): 0%
[28]
  growth inhibition (GI): 90%
Digitaria sanguinalis [29]
  growth inhibition (GI): 90%
Pisum sativum
  growth inhibition (GI): 87.5%
[30]
  growth inhibition (GI): 90%
Chenopodium album [31]
  growth inhibition (GI): 0%
Chenopodium album [32]
  growth inhibition (GI): 100%
Echinochloa crus-galli [33]
  growth inhibition (GI): 0%
Digitaria sanguinalis [34]
  growth inhibition (GI): 0%
Digitaria sanguinalis [35]
  growth inhibition (GI): 0%
Medicago sativa [36]
  growth inhibition (GI): 75%
Abutilon theophrasti [37]
  growth inhibition (GI): 0%
Abutilon theophrasti [38]
  growth inhibition (GI): 47.5%
Abutilon theophrasti [39]
  growth inhibition (GI): 82.5%
Amaranthus retroflexus [40]
  growth inhibition (GI): 90%
Medicago sativa [41]
  growth inhibition (GI): 90%
Setaria viridis [42]
  growth inhibition (GI): 0%
Echinochloa crus-galli [43]
  growth inhibition (GI): <=50%
Abutilon theophrasti [44]
  growth inhibition (GI): 99%
Setaria viridis [45]
  growth inhibition (GI): 0%
Amaranthus spinosus [46]
  growth inhibition (GI): 62.5%
